Measured values from publication PMC7646544, “Scaffold hopping and optimisation of 3’,4’-dihydroxyphenyl- containing thienopyrimidinones: synthesis of quinazolinone derivatives as novel allosteric inhibitors of HIV-1 reverse transcriptase-associated ribonuclease H” (Journal of Enzyme Inhibition and Medicinal Chemistry, 2020).
Where two headings read alike, the source gives them in different places.

Tests used:
[1] = target: T1, p66/p51C280A mutant HIV-1 RNase H (Human immunodeficiency virus type 1 group M subtype B, UniProt P04585, C867A); set-up: made in house; method as in PMID 24261890; conditions: p66/p51 C280A mutant RT; cited from earlier work
HIV-1 RT-associated RDDP = target: T2, HIV-1 RT-associated RDDP (Human immunodeficiency virus type 1 group M subtype B, UniProt P04585); assay: HIV-1 RNA-dependent DNA polymerase activity determination; type: biochemical; conditions: wt RT, poly(A)-oligo(dT)
T2 construct: dynamics at the p66/p51 HIV-1 RT-RNase H dimer interface; made in house
Procedure: HIV-1 RT-associated RDDP activity was measured as described[17]^,[38]. Briefly, in 25 μL volume containing 60 mM Tris-HCl pH 8.1, 8 mM MgCl2, 60 mM KCl, 13 mM DTT, poly(A)-oligo(dT), 100 μM dTTP, and 6 ng wt RT. After enzyme addition, the reaction mixture was incubated for 30 min at 37 °C and stopped by addition of EDTA. […] All assays were performed in triplicate.

[2] = target: T3, HIV-1 IN in the presence of LEDGF/p75 (Human immunodeficiency virus type 1 group M subtype B, UniProt P04585); assay: HTRF IN LEDGF/p75-dependent assay; type: biochemical
T3 construct: made in house
Procedure: The IN LEDGF/p75-dependent assay measures inhibition of IN activity in the presence of LEDGF/p75 protein[35–37]. Briefly, 50 nM IN was pre-incubated with increasing concentration of compounds for 1 h at room temperature in reaction buffer containing 20 mM HEPES pH 7.5, 1 mM DTT, 1% Glycerol, 20 mM MgCl2, 0.05% Brij-35 and 0.1 mg/ml BSA. To this mixture, 9 nM DNA donor substrate (5′-[…]-Biotin-3′ annealed with 5′-[…]-Biotin3’) and 50 nM DNA acceptor substrate (5′-Cy5-[…]-3′ annealed with 5′-Cy5- […]-3′) and 50 nM LEDGF/p75 were added and incubated at 37 °C for 90 min.

[3] = target: T4, wt HIV-1 RT-associated RNase H (Human immunodeficiency virus type 1 group M subtype B, UniProt P04585); conditions: wild type RT, cited from earlier work
T4 construct: dynamics at the p66/p51 HIV-1 RT-RNase H dimer interface; made in house

[4] = target: T4, wt HIV-1 RT-associated RNase H; assay: RNase H inhibitor analysis, wild type RT (fluorescent RNA/DNA hybrid); type: biochemical; conditions: for IC50: wild type RT
Procedure: All assays were performed in triplicate.

[5] = system: HIV-1RF isolate in CEM-SS cells; assay: Antiviral activity, XTT-based cell viability assay; conditions: for selectivity index (SI): CC50/EC50, CEM-SS cells; for EC50: Human immunodeficiency virus 1, HIV-1RF, CEM-SS cells, XTT
Procedure: (§1) Antiviral activity of selected thienopyrimidinones was determined via the 2,3-bis[2-methoxy-4-nitro-5-sulfophenyl]-5-[(phenylamino)carbonyl]-2H tetrazolium hydroxide (XTT)-based cell viability assay of Weislow et al.[45], using the HIV-1RF isolate and human T-cell line CEM-SS.

[6] = Cytotoxicity in XTT-based cell viability assay; conditions: human, CEM-SS T cells
Procedure: as §1

[7] = target: T1, p66/p51C280A mutant HIV-1 RNase H; assay: RNase H inhibitor analysis, p66/p51 C280A mutant RT
Procedure: IC50 values were determined as previously reported[31] using an 18-nt 3′-fluorescein-labeled RNA annealed to a complementary 18-nt 5′-dabcyl-labeled DNA. To a 96-well plate was added 1 μL of each inhibitor (in DMSO), followed by 10 μL of the appropriate RT (15−80 ng/mL) in reaction buffer. […] Wells containing only DMSO was used as negative control. […] IC50 values were determined using Prism5 (GraphPad Software, San Diego, CA). All assays were performed in triplicate.

[8] = target: T5, HIV-1 RT-associated RNase H (Human immunodeficiency virus type 1 group M subtype B, UniProt P04585); assay: Yonetani-Theorell analysis on RNase H activity; type: biochemical; conditions: combination of compound 11 and compound 24
T5 construct: dynamics at the p66/p51 HIV-1 RT-RNase H dimer interface; made in house
Procedure: Yonetani–Theorell analysis[43] was performed as reported. Briefly, HIV RT-associated RNase H activity was measured in 100 µL reaction volume containing 50 mM Tris–HCl buffer pH 7.8, 6 mM MgCl2, 1 mM dithiothreitol (DTT), 80 mM KCl, 0.25 µM hybrid RNA/DNA 5′-[…]-Fluorescin-3′ (HPLC, dry, QC: Mass Check) (available from Metabion) 5′-Dabcyl-[…]-3′(HPLC, dry, QC: Mass Check), and different amount of enzymes according to a linear range of dose-response curve: 20 ng of WT RT, and increasing concentrations of inhibitor (diluted) in water and incubated for 1 h at 37 °C, at 200 rpm. Products were measured with a multilabel counter plate reader Victor 3 (Perkin Elmer model 1420-051) equipped with filters for 490/528 nm (excitation/emission wavelength). A calibration curve for the fluorescein signal was generated in parallel, calculating pmols of product generated by the reaction. The reciprocal of the reaction product was plotted vs. the compound concentration a different condition using the Sigma-Plot software.

In the case of `Cc1sc2nc(-c3ccc(O)c(O)c3)[nH]c(=O)c2c1C` [Compound 1, 2-(3,4-dihydroxyphenyl)-5,6-dimethylthieno[2,3-d]pyrimidin-4(3H)-one, reference compound], the IC50 [1] is given as 0.32 µM.

For `Cc1ccc2nc(-c3ccc(O)c(O)c3)[nH]c(=O)c2c1` [Compound 2, 2–(3,4-dihydroxyphenyl)-6-methylquinazolin-4(3H)-one], the IC50 (HIV-1 RT-associated RDDP) is given as over 100 µM, the IC50 [2] is given as 4.3 ± 1.5 µM and the IC50 ([3]; read-out: IC50 WT RNase H) is given as 0.41 ± 0.01 µM. The IC50 [1] was 0.37 ± 0.01 µM.

In the case of `Cc1ccc2c(=O)[nH]c(-c3ccc(O)c(O)c3)nc2c1` [Compound 3, 2–(3,4-dihydroxyphenyl)-7-methylquinazolin-4(3H)-one], the IC50 [4] is reported as 0.5 ± 0.02 µM, the IC50 (HIV-1 RT-associated RDDP) is reported as 60 ± 9 µM and the IC50 [2] is reported as 2.35 ± 0.44 µM. For the same compound, the “selectivity index (SI)” value [5] was 2, the EC50 [5] was 12 µM and the CC50 [6] was 25 µM. The IC50 [7] was 0.23 ± 0.02 µM.

`COc1ccc2nc(-c3ccc(O)c(O)c3)[nH]c(=O)c2c1` [Compound 4, 2–(3,4-dihydroxyphenyl)-6-methoxyquinazolin-4(3H)-one] gave an IC50 [4] of 0.57 ± 0.02 µM, an IC50 (HIV-1 RT-associated RDDP) of 57 ± 3 µM and an IC50 [2] of 8.5 ± 0.3 µM. It also gave an IC50 [7] of 0.41 ± 0.01 µM.

`COc1cc2nc(-c3ccc(O)c(O)c3)[nH]c(=O)c2cc1OC` [Compound 5, 2–(3,4-dihydroxyphenyl)-6,7-dimethoxyquinazolin-4(3H)-one] showed an IC50 [4] of 0.73 ± 0.02 µM, an IC50 (HIV-1 RT-associated RDDP) of over 100 µM and an IC50 [2] of 6.5 ± 2.5 µM. It also gave an IC50 [7] of 0.33 ± 0.003 µM.

With `O=c1[nH]c(-c2ccc(O)c(O)c2)nc2ccc(-c3ccccc3)cc12` [Compound 6, 2–(3,4-dihydroxyphenyl)-6-phenylquinazolin-4(3H)-one] the IC50 [4] was 0.37 ± 0.01 µM, the IC50 (HIV-1 RT-associated RDDP) was 63 ± 11 µM and the IC50 [2] was 89 ± 10 µM. It also gave an IC50 [7] of 0.29 ± 0.006 µM.

`O=c1[nH]c(-c2ccc(O)c(O)c2)nc2cc3ccccc3cc12` [Compound 7, 2–(3,4-dihydroxyphenyl)benzo[g]quinazolin-4(3H)-one] gave an IC50 [4] of 1.1 ± 0.04 µM, an IC50 (HIV-1 RT-associated RDDP) of 23.4 ± 0.5 µM and an IC50 [2] of 31.5 ± 6.5 µM. For the same compound, the IC50 [7] was 0.51 ± 0.05 µM.

For `O=c1[nH]c(-c2ccc(O)c(O)c2)nc2ccc(I)cc12` [Compound 8, 2–(3,4-dihydroxyphenyl)-6-iodoquinazolin-4(3H)-one], the IC50 [4] was 0.15 ± 0.01 µM, the IC50 (HIV-1 RT-associated RDDP) was 26.7 ± 2.2 µM and the IC50 [2] was 3.4 ± 0.83 µM. The “selectivity index (SI)” value [5] was 2, the EC50 [5] was 8.3 µM and the CC50 [6] was 17 µM. The IC50 [7] was 0.12 ± 0.001 µM.

`O=c1[nH]c(-c2ccc(O)c(O)c2)nc2ccc(Br)cc12` [Compound 9, 2–(3,4-dihydroxyphenyl)-6-bromoquinazolin-4(3H)-one] gave an IC50 [4] of 0.45 ± 0.008 µM, an IC50 (HIV-1 RT-associated RDDP) of 46 ± 3 µM and an IC50 [2] of 7 ± 2 µM. For the same compound, the IC50 [7] was 0.4 ± 0.01 µM.

Compound `O=c1[nH]c(-c2ccc(O)c(O)c2)nc2ccc(Cl)cc12` [Compound 10, 2–(3,4-dihydroxyphenyl)-6-chloroquinazolin-4(3H)-one] has an IC50 [4] of 0.31 ± 0.01 µM, an IC50 (HIV-1 RT-associated RDDP) of 30.5 ± 0.4 µM and an IC50 [2] of 3.4 ± 0.6 µM. For the same compound, the “selectivity index (SI)” value [5] was 4, the EC50 [5] was 5.4 µM and the CC50 [6] was 22 µM. The IC50 [7] was 0.2 ± 0.01 µM.

With `O=c1[nH]c(-c2ccc(O)c(O)c2)nc2cc(Cl)ccc12` [Compound 11, 2–(3,4-dihydroxyphenyl)-7-chloroquinazolin-4(3H)-one] the IC50 [4] was 0.43 ± 0.01 µM, the IC50 (HIV-1 RT-associated RDDP) was over 100 µM and the IC50 [2] was 7.2 ± 0.7 µM. For the same compound, the “selectivity index (SI)” value [5] was 3, the EC50 [5] was 1.8 µM and the CC50 [6] was 6 µM. The “interaction constant α” value [8] was “greater than 1”, the “simultaneous inhibition of RNase H (Yonetani-Theorell)” value [8] was “not kinetically mutually exclusive” and the IC50 [7] was 0.66 ± 0.05 µM.

`O=c1[nH]c(-c2ccc(O)c(O)c2)nc2ccc(F)cc12` [Compound 12, 2–(3,4-dihydroxyphenyl)-6-fluoroquinazolin-4(3H)-one] gave an IC50 [4] of 0.52 ± 0.06 µM, an IC50 (HIV-1 RT-associated RDDP) of over 100 µM and an IC50 [2] of 6.61 ± 0.93 µM. It also gave an IC50 [7] of 0.84 ± 0.03 µM.

With `O=c1[nH]c(-c2ccc(O)c(O)c2)nc2ccc([N+](=O)[O-])cc12` [Compound 13, 2–(3,4-dihydroxyphenyl)-6-nitroquinazolin-4(3H)-one] the IC50 [4] was 0.31 ± 0.01 µM, the IC50 (HIV-1 RT-associated RDDP) was 99 ± 1 µM and the IC50 [2] was 23.2 ± 0.8 µM. The IC50 [7] was 0.17 ± 0.004 µM.

For `O=C1NC(c2ccc(O)c(O)c2)Nc2ccc(Cl)cc21` (stereo not shown) [Compound 14, 6-chloro-2–(3,4-dihydroxyphenyl)-2,3-dihydroquinazolin-4(1H)-one], the IC50 [4] was 0.56 ± 0.25 µM, the IC50 (HIV-1 RT-associated RDDP) was over 100 µM and the IC50 [2] was over 100 µM. The IC50 [7] was 0.4 ± 0.03 µM.

`O=c1[nH]c(-c2ccc(O)c(O)c2)nc2c1oc1ccccc12` [Compound 15, 2–(3,4-dihydroxyphenyl)benzofuro[3,2-d]pyrimidin-4(3H)-one] gave an IC50 [4] of 0.64 ± 0.03 µM, an IC50 (HIV-1 RT-associated RDDP) of 25.3 ± 6.3 µM and an IC50 [2] of 5.35 ± 0.35 µM. For the same compound, the IC50 [7] was 0.39 ± 0.01 µM.

With `O=c1[nH]c(-c2ccc(O)c(O)c2)nc2ncccc12` [Compound 16, 2–(3,4-dihydroxyphenyl)pyrido[2,3-d]pyrimidin-4(3H)-one] the IC50 [4] was 2.4 ± 1.6 µM, the IC50 (HIV-1 RT-associated RDDP) was 38 ± 4 µM and the IC50 [2] was 0.69 ± 0.19 µM. The IC50 [7] was 2 ± 0.1 µM.

For `O=c1[nH]c(-c2ccc(O)c(O)c2)nc2ccccc12` [Compound 17, 2–(3,4-dihydroxyphenyl)quinazolin-4(3H)-one], the “fold less potent HIV-1 RNase H inhibitor” value ([4]; compared with decorated quinazolinone 2) was 8 fold, the IC50 (HIV-1 RT-associated RDDP) was 70 ± 1 µM and the IC50 [2] was 1.44 ± 0.4 µM. For the same compound, the IC50 ([3]; read-out: IC50 (µM) WT RNase H) was 3.46 ± 0.47 µM.

For `O=C(O)c1ccc(-c2nc3ccccc3c(=O)[nH]2)cc1O` [Compound 18, 2-hydroxy-4-(4-oxo-3,4-dihydroquinazolin-2-yl)benzoic acid], the IC50 [4] was 13.6 ± 0.3 µM.

`Nc1ccc(-c2nc3ccccc3c(=O)[nH]2)cc1O` [Compound 19, 2-(4-amino-3-hydroxyphenyl)quinazolin-4(3H)-one] gave an IC50 [4] of over 50 µM.

Compound `Nc1ccc(-c2nc3ccccc3c(=O)[nH]2)cc1N` [Compound 20, 2–(3,4-diaminophenyl)quinazolin-4(3H)-one] has an IC50 [4] of over 50 µM.

For `O=c1[nH]c(-c2ccc([N+](=O)[O-])c(O)c2)nc2ccccc12` [Compound 21, 2–(3-hydroxy-4-nitrophenyl)quinazolin-4(3H)-one], the IC50 [4] was over 50 µM.

With `Oc1ccc(-c2ccc3ccccc3n2)cc1O` [Compound 22, 4-(quinolin-2-yl)benzene-1,2-diol] the IC50 [4] was 2.9 ± 0.89 µM, the IC50 [7] was 0.61 ± 0.22 µM and the “fold more potent on C280A mutant RT RNase H than wt RT” value ([7]; C280A vs wt) was 4 fold.

For `Oc1ccc(-c2ccc3ccccc3c2)cc1O` [Compound 23, 4-(naphthalen-2-yl)benzene-1,2-diol], the IC50 [4] was 0.71 ± 0.03 µM, the “fold more potent than the reported compound 17” value ([4]; wt RT RNase H) was 5 fold and the “selectivity index (SI)” value [5] was 2. For the same compound, the EC50 [5] was 14 µM, the CC50 [6] was 26 µM and the IC50 [7] was 1.2 ± 0.04 µM.

With `O=c1[nH]c(-c2ccc(O)c(O)c2)nc2sc3c(c12)CCCCC3` [Compound 24, 2–(3,4-dihydroxyphenyl)-3,5,6,7,8,9-hexahydro-4H-cyclohepta[4,5]thieno[2,3-d]pyrimidin-4-one, reference compound] the “interaction constant α” value [8] was “greater than 1” and the “simultaneous inhibition of RNase H (Yonetani-Theorell)” value [8] was “not kinetically mutually exclusive”.
